The ED50 is the dose at which the effect has come halfway, by size or by number of responders. Broadly, the Ki is the dissociation constant of the complex between target and ligand, obtained from inhibition or displacement.

This is an account of results in PMC9318133 (International Journal of Molecular Sciences, 2022).

Molecules are shown by their SMILES.

Experiment [1] concerns CD-1 mice. The experiment is described as follows: Tail pinch test (acute mechanical nociception). In kind it is in vivo, mouse. The protocol: The motor responses of the animal to different visual and acoustic stimuli were evaluated according to the procedure described in our previous studies. To reduce the number of animals used, mice were evaluated in functional observational tests carried out in a consecutive manner according to the following time scheme: Observation of visual object and acoustic responses and breath rate were measured at 0, 10, 30, 60, 120, 180, 240, and 300 min after injections. Visual placing response was measured at 0, 15, 35, 70, 125, 185, 245, and 305 min after injection. Core temperature was measured at 25, 45, 85, 140, 200, 260, and 320 min after injection. The tail pinch test was measured at 35, 55, 90, 145, 205, 265, and 325 min after injection, and the valuation of number of steps in the drag test was measured at 45, 75, 105, 160, 220, 280, and 340 min after injection.
The tail pinch test is used for evaluating acute mechanical nociception. A special rigid probe connected to a digital dynamometer (ZP-50N, 441-8077, Toyohashi, Aichi, Japan) was gently placed on the tail (in the distal portion), and progressive pressure was applied. When the […] flicked its tail, the pressure was stopped, and the digital instrument saved the maximum peak of weight supported (g/force). A cut-off (500 g/force) was set to avoid tissue damage. The test was repeated three times, and the final value was calculated with the average of three obtained scores.
Data are expressed in arbitrary units (visual objects and acoustic responses) and percentage of baseline (visual placing response, breath rate, and drag test). Core temperature values were expressed as the difference between control temperature (before injection) and temperature following drug administration (Δ °C). Antinociception (tail pinch tests) was calculated as percentage of maximal possible effect:EMax% = [(test − control latency)/(cut off time − control)] × 100
All data are shown as mean ± SEM of 8 independent experimental replications. […] ED50 (dose of agonist to obtain 50% of the overall mean effect) values were calculated by non-linear regression analysis of dose–response data performed using Prism software (GraphPad Prism, San Diego, CA, USA). The calculation of JWH-018 ED50 values was based on the results of previous studies. Curves have been compared, when possible, performing the F test (curve comparison). All statistical analysis was performed using the program Prism 8.0 software (GraphPad Prism, San Diego, CA, USA).

Experiment [2] has as its system CD-1 mice. The experiment in a line: Acoustic response (startle reflex) test. The experiment is classed as in vivo, mouse.
The target of a further experiment is T1, human CB2 receptors (Homo sapiens, UniProt P34972).
T1 construct: host or cells: CHO cells
T1 sequence (P34972 whole entry): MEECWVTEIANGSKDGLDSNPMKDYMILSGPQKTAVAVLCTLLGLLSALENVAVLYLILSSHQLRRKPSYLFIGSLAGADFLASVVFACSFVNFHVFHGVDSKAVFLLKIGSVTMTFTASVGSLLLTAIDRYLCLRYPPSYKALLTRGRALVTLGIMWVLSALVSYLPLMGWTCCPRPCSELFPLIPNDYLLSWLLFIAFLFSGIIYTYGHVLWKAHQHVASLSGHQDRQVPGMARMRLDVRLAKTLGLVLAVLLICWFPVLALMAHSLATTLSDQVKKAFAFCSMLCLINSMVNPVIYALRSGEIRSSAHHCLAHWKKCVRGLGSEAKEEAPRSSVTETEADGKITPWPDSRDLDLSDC
Details: method as in PMID 27527584, PMID 25769232. To be noted: read-out: hCB2 CHO Membranes Ki; [3H]-CP-55,940 competition binding; mean ± SEM; data elaborated from ref [15],[33]; cited from earlier work.

The next experiment deals with T2, mouse CB1 receptors (Mus musculus, UniProt P47746).
T2 construct: membranes from the mouse brain and spleen were used, respectively; from tissue
T2 sequence (P47746 whole entry): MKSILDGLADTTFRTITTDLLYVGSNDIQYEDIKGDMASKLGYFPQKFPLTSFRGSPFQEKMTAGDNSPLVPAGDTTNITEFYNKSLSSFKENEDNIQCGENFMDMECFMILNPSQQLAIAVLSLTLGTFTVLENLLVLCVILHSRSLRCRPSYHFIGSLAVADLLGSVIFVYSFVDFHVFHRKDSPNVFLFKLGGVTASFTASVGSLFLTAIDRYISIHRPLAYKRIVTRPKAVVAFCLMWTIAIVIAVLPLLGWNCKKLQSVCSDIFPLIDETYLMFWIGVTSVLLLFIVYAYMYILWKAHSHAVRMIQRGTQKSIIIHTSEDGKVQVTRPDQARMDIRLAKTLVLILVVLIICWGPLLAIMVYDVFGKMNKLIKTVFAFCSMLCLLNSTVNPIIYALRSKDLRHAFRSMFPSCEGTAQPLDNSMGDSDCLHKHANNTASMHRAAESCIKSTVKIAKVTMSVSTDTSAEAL
Details: method as in PMID 27527584, PMID 25769232. To be noted: read-out: Mouse Cortex Membranes CB1 Ki; [3H]-CP-55,940 competition binding; mean ± SEM; data elaborated from ref [15],[33]; cited from earlier work.

The mark [3] stands for this setting: 0.01–30 mg/kg i.p., monitored over 5 h.
[4] abbreviates: Mus musculus, ip, mice, ED50 + SEM.

Regarding `CCCCCn1cc(Cc2cccc3ccccc23)c2ccccc21` [JWH-175, 3-(1-naphthalenylmethyl)-1-pentyl-1H-indole], in the experiment on CD-1 mice [1] (setting [3]), the “effect on threshold to acute mechanical pain stimulus (tail pinch)” value was “dose-dependently increased the threshold to acute mechanical pain stimulus”. In addition, the ED50 with CD-1 mice [1] (setting [4]) stood at 4 ± 0.12 mg/kg; with CD-1 mice [2] (setting [4]), 4 ± 0.03 mg/kg. Besides, the “lowest dose from which increased pain threshold to acute mechanical stimulus was observed” value with CD-1 mice [1] (i.p.) came to 0.1 mg/kg. The “time of maximum analgesic effect (tail pinch)” value with CD-1 mice [1] (maximum dose of 30 mg/kg i.p.) was 265 min. Also, the “effect on acoustic response” value in the experiment on CD-1 mice [2] (setting [3]) is given as “dose-dependently reduced”.
For the molecule `CCCCCn1cc(C(=O)c2cccc3ccccc23)c2ccccc21` [JWH-018, 1-naphthalenyl(1-pentyl-1H-indol-3-yl)-methanone], the results for the Ki on human CB2 receptors and at mouse CB1 receptors were 8.63 ± 0.69 nM and 5.82 ± 0.44 nM, respectively.
